Columns and labels:
primary MM cells = assay: Ex vivo viability (Annexin V) and proliferation (CFDA) of primary MM cells in whole BM with AE (autologous plasma), lenalidomide dose response; format: cell-based, human; details: 96 hours, 20% autologous plasma (AE)
Text: Patient whole BM was obtained and prepared as indicated above for each sample type. The Vybrant® CFDA SE Cell Tracer Kit (Molecular Probes) was used to measure cell proliferation as it has been disclosed in Example 3. After the CFDA protocol, all samples were resuspented in Culture Medium+Zell Shield (Labclinics)+L-Glu (Lonza)+20% FBS. Condition A samples stayed as is, condition B samples had different concentrations of autologous MM plasma plus RBCs added and condition C samples received 20% autologous plasma. The final cell concentration ranged from 20 cells/μl to 70 cells/μl. Alternatively, the autologous plasma can be replaced with a pool of three MM plasmas.
The CFDA labeled plasmatic cells were dispensed into 96-well plates (60 μl/well) and incubated at 37° C. with 5% CO2 during 72 or 96 hours. For analysis, MM cells (assessed by monoclonal antibodies) were tested for both viability (Annexin-V staining) and proliferation (CFDA).
After 96 hours of culture, the CFDA staining in conjunction with the immunophenotyping allowed for the analysis of both viability (Annexin-V negative) and proliferation (CFDA peaks) of the plasmatic cells, following the previously described methods using Vivia's ExviTech platform.
As the number of MM cells detected after 96 hours of incubation was too low in just a single well, a pooled well assay was performed, obtaining sample from 4 wells that have been treated in an identical manner. […] According to this, and based on the initial cell count, calculation of the sample volume was done for plating between 1000 and 4000 live pathological MM cells per well. During acquisition, sample from four wells was obtained for each treatment, thus obtaining a minimum of 4000 and a maximum of 16000 live plasmatic cells. The results of these experiments indicate that the use of patient's whole bone marrow plus 20% of autologous plasma, or a pool of at least 3 MM plasmas (Condition C from above) and the use of IMDM culture medium provided the best conditions to achieve better MM cells viability and higher proliferation rates (data not shown). Additionally, the presence of either of the two human stromal cell lines, HS27a and HS5, appeared to have a negative effect on both viability and proliferation.
Some drugs used to treat tumor cells preferentially target cells that are actively proliferating, acting as anti-proliferative agents. An example of this is the use of lenalidomide to treat patients diagnosed with MM. The efficacy of lenalidomide is difficult to assess in ex vivo assays against MM primary tumor cells, as these cells have very low levels of proliferation under the conditions that have traditionally been used. In this example, we tested BM samples from 10 patients diagnosed with MM in our ex vivo assay. AE (plasma only) was added to the culture medium to increase levels of proliferation and lenalidomide was tested across a concentration range of 0.03 to 30 μM.
Whole BM from 10 MM patients was cultured in IMDM medium supplemented with 1% antibiotic, 1% L-Glutamine plus an additional 20% of autologous plasma (AE), for 96 hours. Samples were processed and analyzed as outlined in Example 12. MM cell viability (Annexin V) and proliferation (CFDA) were tested against 4 concentrations of Lenalidomide.

primary CLL cells = assay: Ex vivo viability (Annexin V) and proliferation (CFDA) of primary CLL cells with AE, HS-5 stroma and CpG+IL-2, drug dose response; format: cell-based; details: 96 hours, 1.6% AE, 10% Human Serum, HS-5 100:1, CpG ODN + IL-2, 8 concentrations

Structure (SMILES)	effect on NP MM cells (survival index) (primary MM cells; sample 1, 0.03 to 30 μM)	effect on PR MM cells (survival index) (primary MM cells; sample 1, 0.03 to 30 μM)	PR cells eliminated (primary MM cells; sample 3)	NP cells eliminated (primary MM cells; sample 3, at a higher concentration)	potency against the PR population (primary MM cells; sample 3, low concentration)	effect in the NP population (primary MM cells; sample 6)	effect on the PR population (primary MM cells; sample 6)	effect against the PR cells (primary MM cells; sample 7)	effect on the NP cells (primary MM cells; sample 7, at a higher concentration)	effect on Non-Proliferative (NP) Live Tumor Cells (survival index) (primary CLL cells; NP fraction)	inhibition of the proliferation, Proliferative (PR) cell fraction (survival index) (primary CLL cells; PR fraction)
Nc1cccc2c1CN(C1CCC(=O)NC1=O)C2=O (centres unmarked) [lenalidomide]	no effect	no effect	about 60%	about 20%	very potent	small effect	no effect	very potent and effective	effects the NP cells	–	–
CC[C@H](Nc1ncnc2[nH]cnc12)c1nc2cccc(F)c2c(=O)n1-c1ccccc1 [Idelalisib]	–	–	–	–	–	–	–	–	–	little effect	potent inhibition of the proliferation is observed in the low nM range

Reference: patent US20190212325A1, “AN EX VIVO METHOD FOR TESTING CELLULAR RESPONSEIVENESS OF PRIMARY CELL POPULATIONS TO A DRUG OR COMBINATION OF DRUGS” (VIVIA BIOTECH, S.L, priority 2015, published 2019)
